The text below walks through data of PubChem BioAssay (NCI).

Some test systems named below: HS 578T breast; CCRF-CEM leukemia; LOX IMVI melanoma; MCF7 breast; NCI-H226 lung; OVCAR-5 ovarian; SK-OV-3 ovarian; SK-MEL-28 melanoma; RXF 393 renal; NCI-H460 lung.
What all share (experiment): inhibition of tumour cell growth, NCI panel, 48 h

Each structure is given as a SMILES string.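 These data come from cells grown in 96-well plates and exposed to compound for 48 hours at five concentrations. Here, GI50 denotes the concentration required for 50% inhibition of growth. TGI marks complete inhibition of growth.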

Take `COc1ccc2nc3cc([N+](=O)[O-])ccc3c(Nc3ccc(S(=O)(=O)NC(C)=O)cc3)c2c1`: the TGI in the assay with HS 578T breast, with CCRF-CEM leukemia, in the assay on LOX IMVI melanoma, in the assay on MCF7 breast, in the assay with NCI-H226 lung and in the assay with OVCAR-5 ovarian was over 100 µM in each case. The TGI with SK-OV-3 ovarian, in the assay on SK-MEL-28 melanoma, with RXF 393 renal and in the assay with NCI-H460 lung was over 100 µM in each case.
In the case of `CCNC(=O)c1cc(/C=C/c2ccc([N+](=O)[O-])o2)nc2ccccc12`, the TGI in the assay with HS 578T breast, with CCRF-CEM leukemia, in the assay with LOX IMVI melanoma, in the assay with MCF7 breast, with NCI-H226 lung and with OVCAR-5 ovarian was over 100 µM throughout. The TGI is over 100 µM in the assay on SK-OV-3 ovarian, 71.4 µM in the assay with SK-MEL-28 melanoma, over 100 µM in the assay on RXF 393 renal and 17.4 µM in the assay on NCI-H460 lung.
As for `COc1cc(/C=C2/C[C@H]3[C@@H]4CC=C5C[C@@H](OC(C)=O)CC[C@]5(C)[C@H]4CC[C@]3(C)NC2=O)cc(OC)c1OC`, the TGI with HS 578T breast was 74.2 µM; with CCRF-CEM leukemia, over 100 µM; in the assay with LOX IMVI melanoma it was over 100 µM; in the assay on MCF7 breast, over 100 µM; with OVCAR-5 ovarian it was 92.2 µM; in the assay with SK-OV-3 ovarian, 60.3 µM. The values for the TGI with SK-MEL-28 melanoma, in the assay on RXF 393 renal and in the assay with NCI-H460 lung were 70.9 µM, 39.4 µM and over 100 µM, respectively.
For the compound `C[C@@H]1CC[C@H]2C(C(O)CCCCC(O)C3=C(C(F)(F)F)O[C@@H]4O[C@@]5(C)CC[C@H]6[C@H](C)CC[C@@H]3[C@@]46OO5)=C(C(F)(F)F)O[C@@H]3O[C@@]4(C)CC[C@@H]1[C@]32OO4` (some centres not stated), the GI50 in the assay on HS 578T breast is 37.8 µM; with CCRF-CEM leukemia, 14.3 µM; in the assay with LOX IMVI melanoma it was 3.12 µM; in the assay on MCF7 breast, 5.01 µM; with NCI-H226 lung, 33.6 µM; in the assay with SK-OV-3 ovarian, over 100 µM. The GI50 with SK-MEL-28 melanoma was 86.7 µM; with RXF 393 renal, 9.06 µM; in the assay with NCI-H460 lung it was 15.3 µM. Moreover, the TGI with HS 578T breast was over 100 µM; with CCRF-CEM leukemia, over 100 µM; with LOX IMVI melanoma, 11.8 µM; with MCF7 breast it was over 100 µM; in the assay on NCI-H226 lung it was over 100 µM; in the assay with SK-OV-3 ovarian it was over 100 µM. In addition, the TGI in the assay with SK-MEL-28 melanoma, with RXF 393 renal and with NCI-H460 lung was over 100 µM throughout.
With `CC(C)(Oc1ccc(Cl)cc1)C(=O)N(C(=O)N1CCC(c2ccccc2)CC1)c1ccccc1`, the TGI with HS 578T breast, with CCRF-CEM leukemia, in the assay with LOX IMVI melanoma, in the assay with MCF7 breast, with NCI-H226 lung and in the assay with OVCAR-5 ovarian was over 100 µM throughout. In addition, the TGI with SK-OV-3 ovarian, with SK-MEL-28 melanoma, with RXF 393 renal and in the assay on NCI-H460 lung was over 100 µM in each case.
Turning to `COc1ccc(C(SC2C(O)C(CO)OC2n2ccc(N)nc2=O)(c2ccccc2)c2ccc(OC)cc2)cc1` (configuration not stated), the TGI with HS 578T breast is 48.1 µM; in the assay on CCRF-CEM leukemia, over 100 µM; in the assay on LOX IMVI melanoma it was 33.1 µM; in the assay with MCF7 breast it was 50.6 µM; with NCI-H226 lung, 28.3 µM; in the assay with OVCAR-5 ovarian, 50.8 µM. The TGI was found to be 56.1 µM in the assay on SK-OV-3 ovarian, 75.6 µM in the assay on SK-MEL-28 melanoma, 31.5 µM with RXF 393 renal and 27.2 µM in the assay with NCI-H460 lung.
`C=C(CO[Si](C)(C)C(C)(C)C)C(C)=O`: the TGI with HS 578T breast was over 84.4 µM; in the assay with CCRF-CEM leukemia, 9.01 µM; in the assay on LOX IMVI melanoma, 24.7 µM; in the assay on MCF7 breast, 76.7 µM; in the assay with NCI-H226 lung, over 100 µM; with OVCAR-5 ovarian, 86.2 µM. Also, the TGI in the assay on SK-OV-3 ovarian was over 100 µM; in the assay with SK-MEL-28 melanoma, 34.6 µM; in the assay with RXF 393 renal it was 29 µM; in the assay with NCI-H460 lung, over 100 µM.
In the case of `Cc1cc(N2CCCC2)nc(N(CCNc2ccnc3cc(Cl)ccc23)Cc2ccco2)n1`, the GI50 in the assay on HS 578T breast is 6.6 µM; with CCRF-CEM leukemia, 2.85 µM; in the assay with LOX IMVI melanoma it was 2.66 µM; in the assay with MCF7 breast, 2.91 µM; in the assay on NCI-H226 lung it was 3.2 µM; in the assay on OVCAR-5 ovarian it was 4.93 µM. For the same compound, the GI50 in the assay on SK-OV-3 ovarian is 7.16 µM; with SK-MEL-28 melanoma it was 3.94 µM; in the assay with RXF 393 renal, 2.14 µM; in the assay on NCI-H460 lung, 2.99 µM. Moreover, the TGI with HS 578T breast was 69.3 µM; in the assay with CCRF-CEM leukemia it was over 100 µM; with LOX IMVI melanoma it was 10.4 µM; in the assay with MCF7 breast, over 100 µM; in the assay on NCI-H226 lung it was over 100 µM; with OVCAR-5 ovarian, over 100 µM. Moreover, the TGI in the assay on SK-OV-3 ovarian was 38.8 µM; in the assay with SK-MEL-28 melanoma, over 100 µM; in the assay with RXF 393 renal, 6.74 µM; in the assay with NCI-H460 lung, over 100 µM.
Take `CC[N+]1(C)CCC(O)(c2ccc(Cl)c(Cl)c2)C(C(=O)c2ccc(Cl)c(Cl)c2)C1` (configuration not stated): the TGI in the assay on HS 578T breast was over 10 µM; with CCRF-CEM leukemia, 5.98 µM; in the assay with LOX IMVI melanoma, over 10 µM; in the assay on MCF7 breast, over 10 µM; in the assay on NCI-H226 lung, over 10 µM; with OVCAR-5 ovarian, over 10 µM. The TGI in the assay on SK-OV-3 ovarian, in the assay on SK-MEL-28 melanoma, in the assay with RXF 393 renal and with NCI-H460 lung was over 10 µM each time.
Take `O=C(Nc1ccccc1)N(CCCCN(Cc1ccccc1)C(=O)Nc1ccccc1)Cc1ccccc1`: the TGI in the assay with HS 578T breast, in the assay with CCRF-CEM leukemia, in the assay on LOX IMVI melanoma, in the assay on MCF7 breast, in the assay with NCI-H226 lung and with OVCAR-5 ovarian was over 100 µM in each case. Further, the TGI in the assay with SK-OV-3 ovarian, with SK-MEL-28 melanoma, in the assay on RXF 393 renal and in the assay with NCI-H460 lung was over 100 µM throughout.
For the compound `S=C1SCN(Cc2ccco2)CN1c1ccc(Br)cc1`, the TGI with HS 578T breast was over 100 µM; in the assay with CCRF-CEM leukemia, 67.4 µM; in the assay with LOX IMVI melanoma, 13 µM; in the assay with MCF7 breast, 31.3 µM; in the assay with NCI-H226 lung, 69.1 µM; in the assay with OVCAR-5 ovarian, 34.5 µM. Besides, the TGI in the assay on SK-OV-3 ovarian is 73.2 µM; with SK-MEL-28 melanoma, 43.1 µM; with RXF 393 renal, over 100 µM; with NCI-H460 lung it was 28.5 µM.
